Source: US5124083A, “3-substituted and 3,3-disubstituted 4-oxoretinoic acids and their esters” (Southern Research Institute, priority 1990, dated 1992)
pEC50: −log10 of the molar value. Like-named read-outs stand apart in the source and are kept apart here.

Legend:
[1] = tested on: tracheas obtained from vitamin A-deficient hamsters; details: value taken from Newton et al.; read-out: ED50, hamster trachea organ culture assay; cited from earlier work
[2] = tested on: tracheas obtained from vitamin A-deficient hamsters; experiment: Hamster trachea organ culture assay (reversal of squamous metaplasia and keratinization); assay type: cell-based; details: for pEC50: Mesocricetus auratus, reversal of keratinization, vitamin A-deficient hamster trachea in culture, read-out: ED50, hamster trachea organ culture assay; for Activity in hamster-trachea assay compared with the retinamides of Table II: compared with retinamides in lower part of Table II
Method: Some of these 4-oxoretinoic acid analogues were evaluated in the hamster-trachea organ-culture assay described in Clamon et al., Nature, Vol. 250, pages 64-66, 1974; Sporn et al., Nature, Vol. 263, pages 110-113, 1976; and Newton et al., Cancer Res., Vol. 40, pages 3413-3425, 1980. This bioassay is specific for retinoids and assesses the capacity of retinoids to reverse keratinization in vitamin A-deficient hamster trachea in culture. Therefore, it is a measure of the capacity of a retinoid to control differentiation of epithelial cells, and "it is believed to have significant predictive value for the potential use of a new retinoid for prevention of epithelial cancer" (Newton et al., Cancer Res., Vol. 40, pages 3413-3425, 1980). (See Example 25). Also, data obtained by Newton et al., (Cancer Res., Vol. 40, pages 3413-3425, 1980) in assays of six all-trans or 13-cis retinamides are included in Table II for comparison.
Hamster Trachea Organ Culture Assay
4-Oxoretinoids were evaluated for their capacity to reverse squamous metaplasia and keratinization in organ cultures of tracheas obtained from vitamin A-deficient hamsters. The methods and procedures were those described by Sporn and co-workers (Clamon et al. and Newton et al., loc. cit.).

[3] = tested on: F9 Embryonal Carcinoma Cells; experiment: Induction of differentiation of F9 embryonal carcinoma cells (plasminogen activator release); assay type: cell-based; details: Mus musculus, 96 h, by release of plasminogen activator, 4 days, read-out: Differentiation of F9 Embryonal Carcinoma Cells ED50
Method: Induction of differentiation of cancer cells is a potential mode of cancer chemoprevention. […] Elevated release of plasminogen activator by F9 cells in the presence of retinoids is a marker for differentiation. Induction of differentiation of F9 cells by several of the retinoids of this invention was evaluated, and the results are summarized in Table I (Example 24) as values of ED50. All of the tested 4-oxoretionoic acid analogues induce differentiation at low concentrations (ED50 =[…] -10^-10 molar) and, therefore, are very effective inducers of differentiation of mouse F9 embryonal carcinoma cells. […] Under the conditions of this assay, ester derivatives might be hydrolyzed partially to the carboxylic acids.
Assay for Induction of Differentiation of Cancer Cells to Normal Cells
Evaluation of the differentiation potential of 4-oxoretinoids was carried out with an embryonal carcinoma cell line, F9. Elevation of plasminogen activator release by F9 cells in the presence of retinoids is a marker for inducing differentiation into parietal endoderm (Strickland and Mahdavi, loc. cit.; Strickland and Sawey, loc. cit.). F9 cells were grown at a density of 1×10^5 cells/mL in the presence or absence of […], 10^-8, 10^-9, 10^-10, and 10^-11 or molar retinoids for 4 days. Aliquots (20 μL) of the harvest fluid were mixed with 0.13 μM plasminogen, 0.3 mM H-D-Val-Leu-Lys-p-nitroaniline (a synthetic substrate of plasmin), 0.1% Tween 80, and 25 μg of fibrinogen fragments in a final volume of 0.2 mL of Tris-HCl, pH 7.5. After incubation for 4 hours at 25° C., the generation of p-nitroaniline was measured by absorbance at 405 nm. The average absorbencies from duplicate experiments were plotted (semilog plots) versus concentration (molarity). The ED50 values were determined by finding the midpoint between the maximal and minimal absorbance values.
Induction of Differentiation of Cancer Cells
^a ED50 is the molar concentration of the retinoid that causes
50% induction of differentiation of the carcinoma cells as measured by th
release of plasminogen activator.

skin papillomas = experiment: Mouse antipapilloma assay (DMBA-TPA skin papillomas); assay type: in vivo; parameters: Average Number of Skin Papillomas/Mouse as % of No. of Papillomas/Mouse in the DMBA-TPA Control Group of Mice: concentration or dose not given beside the values; details: for Average Number of Skin Papillomas/Mouse as % of No. of Papillomas/Mouse in the DMBA-TPA Control Group of Mice: DMBA-initiated, TPA-promoted mouse skin; for Reduction of papilloma formation, summary range: range over the six most active retinoids; for Papilloma formation as % of papilloma formation in untreated control mice, summary range: summary of Table IV
From the text: Application of the carcinogen DMBA to mouse skin followed by application of the tumor promoter TPA causes the formation of papillomas. Certain retinoids applied to the same area of mouse skin reduce or prevent papilloma formation (e.g. H. Mayer, W. Bollag, R. Hanni, and R. Ruegg, Experientia, Vol 34, pages 1105-1119, 1978; R. K. Boutwell and A. K. Verma, Pure and Applied Chemistry, Vol. 51, pages 857-866, 1979). The antipapilloma assay is a direct test of the capability of a retinoid to prevent tumor formation in vivo. It has been used to select retinoids for clinical development. The tested retinoids reduced papilloma formation to 27-83% of papilloma formation in untreated control mice. […] The number of papillomas in mice treated with either of these six retinoids was 27-40% of the number of papillomas on untreated mice; or, differently expressed, papilloma formation was reduced by 60-73%.
In this assay, tumors are initiated in mice by applying the carcinogen DMBA to the skin of mice and subsequently applying the promoter TPA. The method is that of Verma et al., Cancer Research, Vol. 39, pages 419-425, 1979.

ornithine decarboxylase = experiment: Ornithine decarboxylase assay (reduction of TPA-induced ODC activity in mouse skin); assay type: in vivo; details: for Ornithine Decarboxylase Activity, Average % of Control Group: TPA-induced ODC, mouse skin, nanomoles of carbon dioxide per milligram of protein per half hour; for ODC activity as % of the ODC activity in the control mice, summary range: TPA-induced, summary of Table III in text
From the text: A bioassay in vivo for activity in the prevention of carcinogen-induced cancer is based on the reduction by a retinoid of the amount of ornithine decarboxylase (ODC) induced in mouse skin by the tumor promoter 12-O-tetradecanoylphorbol 13-acetate (TPA). Verma et al. (Cancer Research, Vol. 38, pages 793-801, 1978), reported that "application of the potent tumor-promoting agent 12-O-tetradecanoylphorbol 13-acetate (TPA) to mouse skin leads to a rapid and transient induction of epidermal ornithine decarboxylase activity". They state, further, that "inhibition of this enzyme activity by retinoids may be a simple and rapid in vivo test for assessing the potential prophylactic activity of new synthetic retinoids". All of the tested 4-oxoretinoid analogues reduced TPA-induced ODC activity. The compounds of Examples 2-4, 8, 11, 17, 18, and 20-23 reduced ODC activity to 22-47% of the ODC activity in the control mice and are, therefore, very active in this assay for cancer chemopreventive activity.
Ornithine Decarboxylase Assay
Assays for the reduction by 4-oxoretinoids of ornithine decarboxylase activity induced by 12-O-tetradecanoylphorbol 13-acetate (TPA) were performed by the procedure of Verma et al., Cancer Research, Vol. 38, pages 793-801 (1978).

[4] = molar concentration causing 50% induction of differentiation

| pEC50 [2] | Structure (SMILES) | pEC50 [1] | pEC50 [3, 4] | Average Number of Skin Papillomas/Mouse as % of No. of Papillomas/Mouse in the DMBA-TPA Control Group of Mice (skin papillomas) [%] | Reduction of papilloma formation, summary range (skin papillomas) | Papilloma formation as % of papilloma formation in untreated control mice, summary range (skin papillomas) | Ornithine Decarboxylase Activity, Average % of Control Group (ornithine decarboxylase) | ODC activity as % of the ODC activity in the control mice, summary range (ornithine decarboxylase) | Activity in hamster-trachea assay compared with the retinamides of Table II [2] | pEC50 ([3]; average of two determinations, 50% induction of differentiation) |
| --- | --- | --- | --- | --- | --- | --- | --- | --- | --- | --- |
|  | CC1=C(/C=C/C(C)=C/C=C/C(C)=C\C(=O)NCCO)C(C)(C)CCC1 [13-Cis-N-(2-hydroxyethyl)-retinamide] | 9.52 |  |  |  |  |  |  |  |  |
|  | CCNC(=O)\C=C(C)/C=C/C=C(C)/C=C/C1=C(C)CCCC1(C)C [13-Cis-N-ethylretinamide] | 9.52 |  |  |  |  |  |  |  |  |
| 8.40 | COC(=O)/C=C(C)/C=C/C=C(C)/C=C/C1=C(C)C(=O)C(C)CC1(C)C (stereo not shown) [Example 2, Methyl 3-Methyl-4-oxoretinoate] |  | 8.70 | 27 | 60-73% | 27-40% | 33 % of Control Group |  |  |  |
|  | COC(=O)/C=C(C)/C=C/C=C(C)/C=C/C1=C(C)C(=O)C(CC=Cc2ccccc2)CC1(C)C (stereo not shown) [Example 3, Methyl 3-Cinnamyl-4-oxoretinoate] |  |  |  |  |  | 31 % of Control Group |  |  |  |
|  | CCC1CC(C)(C)C(/C=C/C(C)=C/C=C/C(C)=C/C(=O)OC)=C(C)C1=O (stereo not shown) [Example 4, Methyl 3-Ethyl-4-oxoretinoate] |  |  | 83 |  |  | 31 % of Control Group |  |  |  |
|  | C=CCC1CC(C)(C)C(/C=C/C(C)=C/C=C/C(C)=C/C(=O)OC)=C(C)C1=O (stereo not shown) [Example 7, Methyl 4-Oxo-3-(2-propenyl)retinoate] |  |  | 42 |  |  | 56 % of Control Group |  |  |  |
|  | C#CCC1CC(C)(C)C(/C=C/C(C)=C/C=C/C(C)=C/C(=O)OC)=C(C)C1=O (stereo not shown) [Example 8, Methyl 4-Oxo-3-(2-propynyl)retinoate] |  | 8.82 | 40 | 60-73% | 27-40% | 35 % of Control Group | 22-47 % of the ODC activity in the control mice |  |  |
| 7.96 | COC(=O)/C=C(C)/C=C/C=C(C)/C=C/C1=C(C)C(=O)C(Cc2ccccc2)CC1(C)C (stereo not shown) [Example 9, Methyl 4-Oxo-3-(phenylmethyl)retinoate] |  |  |  |  |  | 77 % of Control Group |  |  |  |
| 9.52 | COC(=O)/C=C(C)/C=C/C=C(C)/C=C/C1=C(C)C(=O)C(C)(C)CC1(C)C [Example 11, Methyl 3,3-Dimethyl-4-oxoretinoate] |  | 9.05 | 27 | 60-73% | 27-40% | 22 % of Control Group | 22-47 % of the ODC activity in the control mice | comparable |  |
| 8.70 | CC1=C(/C=C/C(C)=C/C=C/C(C)=C/C(=O)O)C(C)(C)CC(C)C1=O (stereo not shown) [Example 17, 3-Methyl-4-oxoretinoic Acid] |  | 9.05 | 32 | 60-73% | 27-40% | 33 % of Control Group | 22-47 % of the ODC activity in the control mice |  |  |
|  | CCC1CC(C)(C)C(/C=C/C(C)=C/C=C/C(C)=C/C(=O)O)=C(C)C1=O (stereo not shown) [Example 18, 3-Ethyl-4Oxoretionoic Acid] |  | 8.30 | 57 |  |  | 40 % of Control Group | 22-47 % of the ODC activity in the control mice |  |  |
|  | C=CCC1CC(C)(C)C(/C=C/C(C)=C/C=C/C(C)=C/C(=O)O)=C(C)C1=O (stereo not shown) [Example 19, 4-Oxo-3-(2-propenyl)retinoic Acid] |  | 9.15 | 47 |  |  | 68 % of Control Group |  |  |  |
| 9.70 | C#CCC1CC(C)(C)C(/C=C/C(C)=C/C=C/C(C)=C/C(=O)O)=C(C)C1=O (stereo not shown) [Example 20] |  | 9.22 | 64 |  |  | 47 % of Control Group |  | comparable |  |
| 7.96 | CC1=C(/C=C/C(C)=C/C=C/C(C)=C/C(=O)O)C(C)(C)CC(Cc2ccccc2)C1=O (stereo not shown) [Example 21] |  | 9.10 |  |  |  | 42 % of Control Group |  |  |  |
|  | CC1=C(/C=C/C(C)=C/C=C/C(C)=C/C(=O)O)C(C)(C)CC(CC=Cc2ccccc2)C1=O (stereo not shown) [Example 22, 3-Cinnamyl-4-oxoretinoic Acid] |  | 8.46 | 39 | 60-73% | 27-40% | 23 % of Control Group |  |  |  |
|  | CC1=C(/C=C/C(C)=C/C=C/C(C)=C/C(=O)O)C(C)(C)CC(C)(C)C1=O [Example 23, 3.3-Dimethyl-4-Oxoretinoic Acid] |  |  | 27 | 60-73% | 27-40% | 26 % of Control Group |  |  | 9.64 |
